Data on 4 compounds can be found in paper PMC12345137 (mBio, 2025).

Values joined by “and” are separate entries in the source; they are usually repeats but may differ in a detail not shown here. Identical values can stand only once. Like-named read-outs stand apart in the source and are kept apart here. Positions of bridges follow the written chain, without caps; N, C: chain ends. Residues, ends and D or L forms follow the SMILES beside them.

In one assay the test system is S. aureus (SA) agr-I. Conditions: b-lactamase, cited from earlier work.
The test system of assay [1] is S. aureus (SA) agr-II. The settings on record: b-lactamase, cited from earlier work.
In the next assay the test system is S. aureus (SA) agr-III. Also noted: method as in ref (5) (a number printed in a supplementary file, which may have a reference list of its own: not looked up in the article's list). Conditions: hemolysis; ref (5); cited from earlier work.
Assay [2] has as its system S. aureus (SA) agr-II. Also noted: method as in ref (5) (a number printed in a supplementary file, which may have a reference list of its own: not looked up in the article's list). The settings on record: hemolysis; ref (5); cited from earlier work.
The subject of a further assay is S. aureus (SA) agr-IV. The settings on record: b-lactamase; ref (4); cited from earlier work.
The test system of assay [3] is S. epidermidis (SE) agr-I. Also noted: method as in ref (9) (a number printed in a supplementary file, which may have a reference list of its own: not looked up in the article's list). Conditions: HPLC d-toxin, ref (9); cited from earlier work.
In assay [4] the target is S. aureus agr-I spa-GFP reporter strain (JE2, MRSA) (Staphylococcus aureus, UniProt A0A0H2XKA3). In words: Fluorescence reporter assay for agr deactivation of virulent S. aureus (JE2 spa-GFP). It is filed as cell-based. Conditions: GFP expression relative to non-induced cultures. Here is the method:
A fluorescent reporter strain of S. aureus JE2 containing a plasmid with a spa::GFP promoter was constructed by transforming the strain with pALC1741 ([52]). Cultures of the reporter strain were grown from single colonies in TSB medium containing chloramphenicol (CAM, 10 μg/mL) and S. aureus AIP-I (1) (concentrations = 500 nM, 100 nM, or 50 nM) to OD600 = 0.2–0.3 (early exponential phase) at 37°C. Assays were performed in sterile black 96-well plates with clear bottoms. Peptide solutions (15 μL) in 1:5 serial dilutions from DMSO stock solutions (1 mM) in TSB medium were added to the 96-well plate in technical triplicate followed by the induced bacterial cultures (135 μL). Control wells were uninduced cultures containing no S. aureus AIP-I (1). The 96-well plates were incubated in a plate reader at 37°C shaking at 283 rpm and fluorescence (GFP: excitation 479 nm, emission 520 nm, automatic gain), and OD600 values were continuously measured. […] Relative GFP expression was plotted to obtain IC50 values by non-linear regression with variable slope using GraphPad Prism 10.4 software. All assays were performed in biological triplicate.
For orientation: In a reporter assay the amount or activity of a reporter protein is the signal.

For a further assay, the target named is SA AgrC-I (Staphylococcus aureus, UniProt O07911). Kind of assay: β-Lactamase assay, reporter strain RN10829 (P2-agrA:P3-blaZ) with pagrC-I. In kind it is cell-based. Put shortly: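 S. aureus RN10829 (P2-agrA:P3-blaZ) expressing AgrC-I from plasmid, grown in TSB to OD600 0.35–0.40, treated with peptides (10 μM–10 pM) plus cognate AIP (100 nM) for 1 h at 37°C, 200 rpm.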

The next assay has as its target SA AgrC-II (Staphylococcus aureus, UniProt O33587). Kind of assay: β-Lactamase assay, reporter strain RN10829 (P2-agrA:P3-blaZ) with pagrC-II. In kind it is cell-based. The method in brief: (§1)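 S. aureus RN10829 P2-agrA:P3-blaZ reporter carrying a plasmid for the matching wild-type AgrC, grown in TSB to OD600 0.35–0.40. Cells met peptides (10 μM–10 pM) plus cognate AIP at 100 nM for 1 h at 37°C, then nitrocefin (33.3 μg/mL) turnover was read at OD486 for 10 min; IC50 from linear rates.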

The next assay concerns the target SA AgrC-III (Staphylococcus aureus, UniProt O33590). In words: β-Lactamase assay, reporter strain RN10829 (P2-agrA:P3-blaZ) with pagrC-III. In kind it is cell-based. The method in brief: as §1
Assay [5] concerns S. epidermidis (SE) agr-III. The settings on record: fluorescence; at 10 µM; ref (11); cited from earlier work.

Chain of S. aureus agr-I spa-GFP reporter strain (JE2, MRSA) (A0A0H2XKA3 entry or part of it): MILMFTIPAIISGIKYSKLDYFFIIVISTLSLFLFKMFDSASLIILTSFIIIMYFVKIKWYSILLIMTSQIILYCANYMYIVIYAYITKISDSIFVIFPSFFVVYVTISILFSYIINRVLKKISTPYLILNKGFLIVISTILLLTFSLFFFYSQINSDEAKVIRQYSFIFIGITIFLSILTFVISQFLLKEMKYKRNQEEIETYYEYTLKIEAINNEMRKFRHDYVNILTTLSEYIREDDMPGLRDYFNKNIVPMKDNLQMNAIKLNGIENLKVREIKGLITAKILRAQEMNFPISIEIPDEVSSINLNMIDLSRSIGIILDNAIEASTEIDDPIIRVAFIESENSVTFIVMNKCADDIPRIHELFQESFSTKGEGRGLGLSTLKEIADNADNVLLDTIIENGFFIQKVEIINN
Chain of SA AgrC-II (O33587 entry or part of it): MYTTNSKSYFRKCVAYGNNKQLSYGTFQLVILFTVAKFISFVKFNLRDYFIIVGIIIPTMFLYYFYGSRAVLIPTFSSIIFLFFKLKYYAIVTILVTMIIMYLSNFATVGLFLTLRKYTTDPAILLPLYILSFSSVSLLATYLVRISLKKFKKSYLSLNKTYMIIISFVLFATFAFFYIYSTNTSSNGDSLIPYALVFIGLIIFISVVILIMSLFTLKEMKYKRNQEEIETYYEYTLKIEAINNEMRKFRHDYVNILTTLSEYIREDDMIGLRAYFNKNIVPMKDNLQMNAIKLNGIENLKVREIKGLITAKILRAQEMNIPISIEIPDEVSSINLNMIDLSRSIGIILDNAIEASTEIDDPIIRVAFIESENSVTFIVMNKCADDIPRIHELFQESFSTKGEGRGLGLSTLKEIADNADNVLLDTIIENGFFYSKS
Chain of SA AgrC-I (O07911 entry or part of it): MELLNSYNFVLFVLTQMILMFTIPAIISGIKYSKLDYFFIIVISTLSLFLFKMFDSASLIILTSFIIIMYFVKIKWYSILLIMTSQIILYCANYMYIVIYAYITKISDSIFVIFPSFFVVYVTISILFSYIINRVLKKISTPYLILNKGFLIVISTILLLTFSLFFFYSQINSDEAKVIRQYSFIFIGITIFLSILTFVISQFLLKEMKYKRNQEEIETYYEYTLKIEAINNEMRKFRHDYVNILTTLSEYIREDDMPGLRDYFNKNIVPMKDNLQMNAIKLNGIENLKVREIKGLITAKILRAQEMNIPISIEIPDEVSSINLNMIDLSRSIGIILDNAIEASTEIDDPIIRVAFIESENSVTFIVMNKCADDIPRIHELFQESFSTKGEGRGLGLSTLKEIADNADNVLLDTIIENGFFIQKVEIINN
Chain of SA AgrC-III (O33590 entry or part of it): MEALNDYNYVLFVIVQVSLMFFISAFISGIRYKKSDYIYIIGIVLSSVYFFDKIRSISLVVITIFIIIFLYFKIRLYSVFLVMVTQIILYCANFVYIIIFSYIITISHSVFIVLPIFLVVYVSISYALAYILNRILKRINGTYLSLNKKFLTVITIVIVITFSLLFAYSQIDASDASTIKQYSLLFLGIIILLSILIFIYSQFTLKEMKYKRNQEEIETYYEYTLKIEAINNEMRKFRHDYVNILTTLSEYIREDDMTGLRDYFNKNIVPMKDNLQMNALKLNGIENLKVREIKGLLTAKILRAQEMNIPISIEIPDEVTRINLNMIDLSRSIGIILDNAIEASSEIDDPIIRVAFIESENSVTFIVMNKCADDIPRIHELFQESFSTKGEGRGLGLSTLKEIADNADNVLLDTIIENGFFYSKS

One may read the EC50 as the midpoint of the concentration-response curve. What is called IC50 is the concentration at which inhibition is half-maximal. Consider `CC[C@H](C)[C@@H]1NC(=O)[C@H](Cc2ccccc2)NC(=O)[C@H](CC(=O)O)NC(=O)[C@@H](NC(=O)[C@@H](NC(=O)[C@H](CO)NC(=O)[C@@H](N)Cc2ccc(O)cc2)[C@@H](C)O)CSC(=O)[C@H](CCSC)NC1=O` [compound 1, S. aureus AIP-I] (H-YSTCDFIM; thioester 4-C), for which the EC50 in the assay on S. aureus (SA) agr-I (ref (3)) was 40 nM and 23 nM; in the assay with S. aureus (SA) agr-I (ref (4)), 28 nM; in the assay with S. aureus (SA) agr-I (ref (6)) it was 11 nM; in the assay on S. aureus (SA) agr-I (ref (7)) it was 3.21 nM; with S. aureus (SA) agr-IV it was 26000 nM. Further, the IC50 in the assay on S. aureus (SA) agr-II [1] (ref (2)) is 3.4 ± 1.2 nM; with S. aureus (SA) agr-II [1] (ref (4)) it was 25 nM; with S. aureus (SA) agr-III it was 6.12 nM; with S. aureus (SA) agr-II [2] it was 3.34 nM. Further, the “inhibition at 1000 nM, SE agr-I” value in assay [3] is given as “no inhibition”.

Consider `NCCCC[C@H](N)C(=O)N[C@@H](Cc1ccc(O)cc1)C(=O)N[C@@H](Cc1ccc(O)cc1)C(=O)N1CCC[C@H]1C(=O)N[C@H]1CSC(=O)[C@H](Cc2ccccc2)NC(=O)[C@H](Cc2ccc(O)cc2)NC(=O)CNC(=O)[C@H](Cc2c[nH]c3ccccc23)NC1=O` [compound 33, S. simulans AIP-II] (H-KYYPCWGYF; thioester 5-C), for which the IC50 in [4] (induced with 1 [50 nM]) came out at 3.3 nM; in [4] (induced with 1 [100 nM]), 5.2 nM; in assay [4] (induced with 1 [500 nM]), 18.4 nM; on SA AgrC-I it was 1.9 ± 0.3 nM; at SA AgrC-II, 80 ± 7 nM; on SA AgrC-III, 198 ± 33 nM.

With `NCCCC[C@H](N)C(=O)N[C@@H](Cc1ccc(O)cc1)C(=O)N[C@@H](CC(N)=O)C(=O)N1CCC[C@H]1C(=O)N[C@H]1CSC(=O)[C@H](Cc2ccccc2)NC(=O)[C@H](Cc2ccc(O)cc2)NC(=O)CNC(=O)[C@H](Cc2c[nH]c3ccccc23)NC1=O` [compound 34, S. simulans AIP-III] (H-KYNPCWGYF; thioester 5-C), the IC50 against SA AgrC-I was 1.6 ± 0.1 nM; at SA AgrC-II, 60 ± 7 nM; at SA AgrC-III, 103 ± 5 nM.

“S. aureus AIP-III D4A [compound 57, reference compound]”: the IC50 was 0.16 ± 0.01 nM with S. aureus (SA) agr-I (ref (8)), 0.16 nM in the assay with S. aureus (SA) agr-III and 0.06 nM with S. aureus (SA) agr-II [2]. Besides, the “inhibition at 10 µM, SE agr-III” value in assay [5] was ~ 25%.
